Results published in patent US20250049922A1, “PHARMACEUTICAL COMPOSITION COMPRISING P-BORONOPHENYLALANINE” (priority 2021, published 2025).

Test: Solubilization of BPA in aqueous solutions, visual inspection of dissolution
Type: physicochemical
Conditions: RT, after 2 hours
Description: BPA (L-p-boronophenylalanine, Katchem, Praha, Czech Republic) was weighed to a set of test tubes, 15 mg each (72 μmol). At room temperature (RT), 0.5 ml each of various aqueous solutions as listed below, were added into parallel test tubes and mixed vigorously. After 2 hours, the results of visual inspection of BPA dissolution and pH were as follows: […]

- visual inspection of BPA dissolution (15 mg BPA in 0.5 ml 0.12 M L-histidine (neutral pH)): no dissolution
- visual inspection of BPA dissolution (15 mg BPA in 0.5 ml 0.5 M L-arginine (pH over 11)): partial dissolution
- visual inspection of BPA dissolution (15 mg BPA in 0.5 ml 0.5 M L-serine (neutral pH)): no dissolution
- visual inspection of BPA dissolution (15 mg BPA in 0.5 ml 0.5 M NaOH): complete dissolution
- visual inspection of BPA dissolution (15 mg BPA in 0.5 ml 0.5 M Tris (Trizma base, pH over 10)): complete dissolution
- visual inspection of BPA dissolution (15 mg BPA in 0.5 ml 0.5 M Tris-HCl (pH 8)): partial dissolution
- visual inspection of BPA dissolution (15 mg BPA in 0.5 ml 0.5 M propylene glycol): no dissolution
- visual inspection of BPA dissolution (15 mg BPA in 0.5 ml 0.5 M sodium-potassium tartrate (neutral pH)): partial dissolution
- visual inspection of BPA dissolution (15 mg BPA in 0.5 ml 96% ethanol (v/v)): no dissolution
- visual inspection of BPA dissolution (15 mg BPA in 0.5 ml deionized water): no dissolution
- visual inspection of BPA dissolution (15 mg BPA, 0.25 ml 0.5 M NaOH followed by 0.5 ml 0.5 M L-serine): complete dissolution
SMILES: N[C@@H](Cc1ccc(B(O)O)cc1)C(=O)O [BPA, L-p-boronophenylalanine]
